Test results taken from ChEMBL document CHEMBL5236553, “Advances in the development of HIV integrase strand transfer inhibitors” (Eur J Med Chem, 2021).

Assays:
[1] = system: Human immunodeficiency virus; test: Antiviral activity against wild type HIV-1 integrase; type: functional, organism-based; conditions: Human immunodeficiency virus 1
[2] = system: Human immunodeficiency virus; test: Antiviral activity against HIV-1 harboring integrase G140S/Q148H double mutant; type: functional, organism-based; conditions: Human immunodeficiency virus 1
[3] = system: Human immunodeficiency virus; test: Antiviral activity against HIV-1 harboring integrase N155H mutant; type: functional, organism-based; conditions: Human immunodeficiency virus 1
[4] = system: Human immunodeficiency virus; test: Antiviral activity against HIV-1 harboring integrase Q148R mutant; type: functional, organism-based; conditions: Human immunodeficiency virus 1
[5] = system: Human immunodeficiency virus; test: Antiviral activity against HIV-1 harboring integrase E92Q mutant; type: functional
[6] = system: Integrase (Human immunodeficiency virus 1); test: Inhibition of HIV-1 integrase-catalyzed strand transfer
[7] = biological target: Human immunodeficiency virus type 1 integrase (Human immunodeficiency virus 1, UniProt Q7ZJM1); test: Inhibition of HIV-1 integrase strand transfer activity
[8] = system: Human immunodeficiency virus; test: Antiviral activity against HIV-1 assessed as inhibition of HIV infection in human T cells by cell based assay; type: functional, organism-based; conditions: Human immunodeficiency virus 1, T-cell
[9] = system: Human immunodeficiency virus; test: Fold change in antiviral EC50 against HIV-1 harboring integrase Q148K mutant; conditions: Human immunodeficiency virus 1
[10] = system: Human immunodeficiency virus; test: Fold change in antiviral EC50 against HIV-1 harboring integrase Y143R mutant; conditions: Human immunodeficiency virus 1
[11] = system: Human immunodeficiency virus; test: Binding affinity to HIV-1 wildtype integrase DNA complex assessed as dissociative half life
[12] = system: Human immunodeficiency virus; test: Antiviral activity against HIV-1 harboring integrase […]/N155H mutant; type: functional, organism-based; conditions: Human immunodeficiency virus 1
[13] = system: Human immunodeficiency virus; test: Antiviral activity against HIV-1 harboring integrase L74M mutant; type: functional, organism-based; conditions: Human immunodeficiency virus 1
[14] = system: Human immunodeficiency virus; test: Antiviral activity against HIV-1 harboring integrase M50I mutant; type: functional, organism-based; conditions: Human immunodeficiency virus 1
[15] = system: Human immunodeficiency virus; test: Antiviral activity against HIV-1 harboring integrase E138K/Q148K mutant; type: functional, organism-based; conditions: Human immunodeficiency virus 1
[16] = system: Human immunodeficiency virus; test: Antiviral activity against HIV-1 harboring integrase G140S/Q148H mutant; type: functional, organism-based; conditions: Human immunodeficiency virus 1
[17] = Clearance in rat plasma; type: ADME, cell-free
[18] = Clearance in dog plasma; type: ADME, cell-free, Canis lupus familiaris
Integrase [19] = biological target: T1, Integrase (Human immunodeficiency virus 1, UniProt T1QYY3, G140S/Q148H); test: Inhibition of HIV-1 integrase G140S/Q148H double mutant
[20] = biological target: Human immunodeficiency virus type 1 integrase (Human immunodeficiency virus 1, UniProt Q7ZJM1, R263K); test: Inhibition of HIV-1 integrase DTG-resistant R263K mutant
[21] = biological target: Human immunodeficiency virus type 1 integrase (Human immunodeficiency virus 1, UniProt Q7ZJM1, G118R); test: Inhibition of HIV-1 integrase DTG-resistant G118R mutant
[22] = biological target: Human immunodeficiency virus type 1 integrase (Human immunodeficiency virus 1, UniProt Q7ZJM1, H51Y/R263K); test: Inhibition of HIV-1 integrase DTG-resistant H51Y/R263K double mutant
Integrase [23] = biological target: T1, Integrase; test: Inhibition of HIV-1 integrase RAL-resistant G140S/Q148H double mutant

## CC1(C)OCCn2c1nc(C(=O)NCc1ccc(F)cc1)c(O)c2=O
[1]
  EC50: 3 nM
[2]
  EC50: > 8000 nM
[3]
  EC50: 140 nM
[4]
  EC50: 300 nM

## Cc1nnc(C(=O)NC(C)(C)c2nc(C(=O)NCc3ccc(F)cc3)c(O)c(=O)n2C)o1
[5]
  fold change (FC): 3
[6]
  IC50: 10 nM

## O=C(NCc1ccc(F)c(F)c1)c1c(O)c2cccnc2n(O)c1=O
[7]
  IC50: 400 nM

## COc1cc2c(cc1Cc1cccc(Cl)c1F)c(=O)c(C(=O)O)cn2[C@H](CO)C(C)C
[8]
  EC50: 0.9 nM

## CC1(C)OCCn2c1nc(-c1ncc(Cc3ccc(F)cc3)[nH]1)c(O)c2=O
[1]
  EC50: 6 nM
[2]
  EC50: 320 nM
[3]
  EC50: 2 nM
[4]
  EC50: 33 nM

## C[C@H](O)N1C(=O)c2c3c(c(O)c(=O)n2[C@]12CC[C@H]1C[C@H]12)C(=O)N(Cc1ccc(F)c(Cl)c1)CC3
[5]
  fold change (FC): 1.5
[9]
  fold change: 1
[3]
  EC50: 1.5 nM
[10]
  fold change: 1
[4]
  EC50: 1.5 nM

## O=C(NCc1ccc(F)cc1F)c1cc2cccc(O)c2n(O)c1=O
[7]
  IC50: 1800 nM

## O=C(NCc1ccc(F)c(Cl)c1)c1c(O)c2cccnc2n(O)c1=O
[7]
  IC50: 270 nM

## C[C@@H]1CCO[C@H]2Cn3cc(C(=O)NCc4ccc(F)cc4F)c(=O)c(O)c3C(=O)N12 [DOLUTEGRAVIR]
[11]
  T1/2: 71 h
[12]
  EC50: 4 nM
[13]
  EC50: 2.2 nM
[14]
  EC50: 2.1 nM
[15]
  EC50: 25 nM
[16]
  EC50: 3.9 nM

## CC(C)n1c(C(=O)N(C)C)c2c(c(O)c1=O)C(=O)N(Cc1ccc(F)c(Cl)c1)CC2
[17]
  clearance: 2.3 mL/min/kg
[5]
  fold change (FC): 1
[18]
  clearance: 2.2 mL/min/kg
[9]
  fold change: 1
[10]
  fold change: 2

## O=C(NCc1ccc(F)cc1F)c1cc2cccnc2n(O)c1=O
[7]
  IC50: 410 nM

## O=C(NCc1c(F)cc(F)cc1F)c1cn2c(c(O)c1=O)C(=O)N1[C@H]3CC[C@H](C3)O[C@@H]1C2 [BICTEGRAVIR]
Integrase [19]
  EC50: 3.1 nM
[20]
  EC50: ≤ 5 nM
[21]
  EC50: ≤ 5 nM
[22]
  EC50: ≤ 5 nM
Integrase [23]
  EC50: ≤ 5 nM

## CN1C(=O)c2c3c(c(O)c(=O)n2[C@]12CC[C@H]1C[C@@]12CO)C(=O)N(Cc1ccc(F)c(Cl)c1)CC3
[5]
  fold change (FC): 1
[9]
  fold change: 1
[10]
  fold change: 1

## O=C(NCc1ccc(F)c(Cl)c1)c1cc2cccnc2n(O)c1=O
[7]
  IC50: 140 nM

## O=C(NCc1ccc(F)cc1F)c1c(O)c2cccnc2n(O)c1=O
[7]
  IC50: 550 nM

## O=C(NCc1ccc(F)c(F)c1)c1cc2cccnc2n(O)c1=O
[7]
  IC50: 170 nM

## Nc1c(C(=O)NCc2ccc(F)cc2F)c(=O)n(O)c2ncc(CCCCCCO)cc12
[12]
  EC50: 1.1 nM
[13]
  EC50: 1.6 nM
[14]
  EC50: 1.3 nM
[15]
  EC50: 16 nM
[16]
  EC50: 0.9 nM
